Common to all, as to format: functional
Assay [1] concerns Lepidium sativum. The experiment in a line: Inhibitory activity on cress growth at a concentration of 0.05 uM.
Assay [2] relates to Lepidium sativum. The experiment in a line: Inhibitory activity on cress growth at a concentration of 0.1 uM.
Assay [3] has as its system Lepidium sativum. The experiment in a line: Inhibitory activity on cress growth at a concentration of 0.5 uM.
For assay [4], the system named is Lepidium sativum. The experiment in a line: Inhibitory activity on cress growth at a concentration of 1 uM.
Assay [5] has as its system Oryza sativa. The experiment in a line: Compound was tested for its activity in rice stem elongation test at a concentration of 1 uM Stem length was measured after 7 days of transplantation.
Assay [6] relates to Lepidium sativum. Briefly: Inhibitory activity on cress growth at a concentration of 5 uM.

For `CC(C)(C)C(O)/C(=C\c1ccc(Cl)cc1)n1cncn1` (centres undefined), the Hypocotyl length in assay [1] is 1 cm; in assay [2], about 0.52 cm; in assay [3], about 0.51 cm; in assay [4], about 0.51 cm; in assay [6], 0.5 cm. The compound also came in with a Rice stem length in assay [5] of 1.4 cm.
`CC(C)(C)C(O)C(Cc1ccc(Cl)cc1)n1cncn1` (centres undefined): in assay [5], the Rice stem length was determined as 1 cm.
The same measure, in the same setting: the same measure for `CCCCOc1ccc(/C=C(\C(O)C(C)(C)C)n2cncn2)cc1` (centres undefined): 2.4 cm.
Consider `OC(/C(=C\c1ccc(Cl)cc1)n1cncn1)c1ccccc1` (centres undefined), for which the Hypocotyl length is reported as about 2 cm in assay [1], 1.75 cm in assay [2], 1 cm in assay [3] and about 0.75 cm in assay [4]. Moreover, the Rice stem length in assay [5] came to 2.7 cm.
With `CC(C)(C)C(O)/C(=C\c1ccc(Cl)cc1Cl)n1cncn1` (centres undefined), in assay [5], the Rice stem length worked out at 1.2 cm.
Regarding `OC(c1ccccc1)C(Cc1ccc(Cl)cc1)n1cncn1` (centres undefined), in assay [5], the Rice stem length was about 2.6 cm.
`COc1cccc(/C=C(\C(O)C(C)(C)C)n2cncn2)c1` (centres undefined) registered a Rice stem length in assay [5] of 2.7 cm.
As to `CC(C)(C)C(O)C(CCCOc1ccccc1)n1cncn1` (centres undefined), the Rice stem length in assay [5] was found to be 2.1 cm.
Take `CC(O)(c1ccccc1)C(Cc1ccc(Cl)cc1)n1cncn1` (centres undefined): the Hypocotyl length in assay [1] is recorded as about 2 cm; in assay [2], about 2.25 cm; in assay [3], 1.25 cm; in assay [4], 0.75 cm; in assay [6], 0.5 cm. The compound also gave a Rice stem length in assay [5] of about 2.7 cm.
Turning to `CC(C)(C)C(O)C(CCc1ccccc1)n1cncn1` (centres undefined), in assay [5], the Rice stem length is about 2 cm.

These data come from ChEMBL document CHEMBL1131929, “New lead compounds for brassinosteroid biosynthesis inhibitors” (1999).
